In patent US8501812B2, “Therapeutic methods for type I diabetes” (University of Massachusetts, priority 2005, dated 2013):

Tests used:
[1] = solubility in aqueous media; assay type: physicochemical
JNK2 = molecular target: T1, JNK2 (Homo sapiens, UniProt P45984); test: c-Jun phosphorylation assay with His6-JNK2 and GST-c-Jun(1-79), γ-32P ATP; assay type: biochemical; settings: assay consistently shows, despite variability
T1 construct: His6 (N)
Experimental: For example, to 10 μL of 5-amino-anthra(9,1-cd)isothiazol-6-one in 20% DMSO/80% dilution buffer containing of 20 mM HEPES (pH 7.6), 0.1 mM EDTA, 2.5 mM magnesium chloride, 0.004% Triton×100, 2 μg/mL leupeptin, 20 mM β-glycerolphosphate, 0.1 mM sodium vanadate, and 2 mM DTT in water is added 30 μL of 50-200 ng His6-JNK2 in the same dilution buffer. The mixture is pre-incubated for 30 minutes at room temperature. Sixty μL of 10 μg GST-c-Jun(1-79) in assay buffer consisting of 20 mM HEPES (pH 7.6), 50 mM sodium chloride, 0.1 mM EDTA, 24 mM magnesium chloride, 1 mM DTT, 25 mM PNPP, 0.05% Triton×100, 11 μM ATP, and 0.5 μCi γ-32P ATP in water is added and the reaction is allowed to proceed for 1 hour at room temperature. The c-Jun phosphorylation is terminated by addition of 150 μL of 12.5% trichloroacetic acid. After 30 minutes, the precipitate is harvested onto a filter plate, diluted with 50 μL of the scintillation fluid and quantified by a counter. The IC50 values are calculated as the concentration of 5-amino-anthra(9,1-cd)isothiazol-6-one at which the c-Jun phosphorylation is reduced to 50% of the control value. Compounds that inhibit JNK2 preferably have an IC50 value ranging 0.01-10 μM in this assay. 5-Amino-anthra(9,1-cd)isothiazol-6-one has an IC50 according to this assay of 1 μM for JNK2 and 400 nM for JNK3.

T1 sequence (P45984 whole entry): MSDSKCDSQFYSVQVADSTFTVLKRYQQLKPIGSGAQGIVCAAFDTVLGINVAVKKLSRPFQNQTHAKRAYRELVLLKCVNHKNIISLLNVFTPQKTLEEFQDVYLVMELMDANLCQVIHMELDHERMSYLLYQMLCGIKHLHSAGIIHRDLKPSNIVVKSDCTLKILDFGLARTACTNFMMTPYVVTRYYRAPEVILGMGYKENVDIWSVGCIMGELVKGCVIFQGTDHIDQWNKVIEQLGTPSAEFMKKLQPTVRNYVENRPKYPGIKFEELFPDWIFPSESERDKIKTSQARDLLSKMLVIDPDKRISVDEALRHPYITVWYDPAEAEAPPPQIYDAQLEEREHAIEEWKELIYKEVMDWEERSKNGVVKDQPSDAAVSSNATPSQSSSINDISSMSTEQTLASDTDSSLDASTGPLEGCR

Nc1ccc2snc3c2c1C(=O)c1ccccc1-3 [5-amino-anthra(9,1-cd)isothiazol-6-one]
solubility in aqueous media [1]: limited solubility
selectivity of JNK2 inhibition (JNK2): selectively inhibits JNK2
